Experimental data as given in patent US20240091203A1, “METHODS FOR TREATING NON-OBSTRUCTIVE HYPERTROPHIC CARDIOMYOPATHY” (Cytokinetics, Incorporated, priority 2022, published 2024).
Entries after “also recorded” stand apart in the source; their conditions may differ.

Assays:
Format in all cases: in vivo, human
[1] = Phase 1 plasma pharmacokinetics, single-ascending dose (SAD) cohorts; conditions: for AUC24 / Cmax / AUCinf / CL/F / t1/2 / Tmax: SAD; for CL/F / t1/2: mean ± SD; for Tmax: median (range)
Experimental: Single-ascending dose (SAD) cohorts. The SAD portion of the study used a randomized, double-blind, placebo-controlled, sequential, escalating-dose design, in which participants received single-ascending oral doses of the study drug. Seven cohorts were dosed in sequence (FIG. 2).
(§1) Pharmacokinetic analyses. For all study groups, blood samples for PK assessment were obtained pre-dose, up to 12 times daily on day 1, and then at regular intervals throughout the study. Blood samples were collected according to the following schedule: SAD Cohorts: Day 1: pre-dose and 0.25, 0.5, 1, 1.5, 2, 2.5, 3, 4, 6, 8, 12, 16, 24, 36, 48, 72, 96, and 216 h post dose. MAD Cohorts (14-day Dosing): Day 1: pre-dose and 0.25, 0.5, 1, 1.5, 2, 2.5, 3, 4, 6, 8, and 12 h post dose; Days 2, 4, 5, 6, and 9: pre-dose (corresponding to trough samples following dosing on days 1, 3, 4, 5, and 8) and 1.5 h post dose; Days 3, 7, 8, 10, 11, 12, and 13: pre-dose (corresponding to trough samples following dosing on days 2, 6, 7, 9, 10, 11, and 12); Day 14: pre-dose and 0.25, 0.5, 1.5, 2, 2.5, 3, 4, 6, 8, 12, 16, 24, 36, 48, 72, and 168 h post dose. MAD Cohort (17-Day Dosing): Day 1: pre-dose and 0.25, 0.5, 1, 1.5, 2, 2.5, 3, 4, 6, 8, and 12 h post dose; Days 2, 4, 5, 6, and 9: pre-dose (corresponding to trough samples following dosing on days 1, 3, 4, 5, and 8) and 1.5 h post dose; Days 3, 7, 8, 10, 11, 12, 13, 14, 15, and 16: pre-dose (corresponding to trough samples following dosing on days 2, 6, 7, 9, 10, 11, and 12); Day 17: pre-dose and 0.25, 0.5, 1.5, 2, 2.5, 3, 5, 7, 9, 12, 24, 36, 48, 72, and 168 h post dose. CYPD6-PM Cohort: Day 1: pre-dose and 0.25, 0.5, 1, 1.5, 2, 2.5, 3, 4, 6, 8, 12, 16, 24, 36, 48, 72, 96, 216, 312, and 552 h post dose. Food-Effect Cohort: Day 1: pre-dose and 0.25, 0.5, 1, 1.5, 2, 2.5, 3, 4, 6, 8, 12, 16, 24, 36, 48, 72, 96, 144, and 216 h post dose. Standard non-compartmental methods were used to calculate PK parameters using Phoenix® WinNonlin® Version 7.0; actual sample collection times were utilized.
Statistical Analysis. The sample size chosen for this study was based upon precedent set by other first-in-human PK studies of similar nature and was not based on power calculations. […] All participants who received ≥1 dose of the study drug and had ≥1 evaluable PK plasma profile were included in the PK analysis set. […]

[2] = Phase 1 plasma pharmacokinetics, CYP2D6 poor metabolizer cohort; conditions: single 10 mg
Experimental: CYP2D6 poor metabolizer cohort.
CYP2D6 genotypes were determined at screening for all study participants; those identified as CYP2D6-PMs were excluded from the SAD and MAD cohorts but were invited to participate in the CYP2D6-PM cohort. The first individual in the CYP2D6-PM cohort was dosed after the SAD 25-mg cohort (FIG. 2). […] Nine participants were randomized (7:2) with a sentinel dosing group consisting of the first 2 participants treated.
as §1

[3] = Phase 1 plasma pharmacokinetics, food-effect cohort; conditions: 10 mg; for AUCinf / AUC24 / Cmax: geometric mean; for CL/F / t1/2: mean ± SD
Experimental: Food-effect cohort. […] Participants were randomized in a 1:1 ratio to 1 of 2 sequences: fasted/fed or fed/fasted.
Pharmacokinetic analyses. For all study groups, blood samples for PK assessment were obtained pre-dose, up to 12 times daily on day 1, and then at regular intervals throughout the study. Blood samples were collected according to the following schedule: SAD Cohorts: Day 1: pre-dose and 0.25, 0.5, 1, 1.5, 2, 2.5, 3, 4, 6, 8, 12, 16, 24, 36, 48, 72, 96, and 216 h post dose. […] CYPD6-PM Cohort: Day 1: pre-dose and 0.25, 0.5, 1, 1.5, 2, 2.5, 3, 4, 6, 8, 12, 16, 24, 36, 48, 72, 96, 216, 312, and 552 h post dose. Food-Effect Cohort: Day 1: pre-dose and 0.25, 0.5, 1, 1.5, 2, 2.5, 3, 4, 6, 8, 12, 16, 24, 36, 48, 72, 96, 144, and 216 h post dose. Standard non-compartmental methods were used to calculate PK parameters using Phoenix® WinNonlin® Version 7.0; actual sample collection times were utilized.

[4] = single oral 1 mg, geometric mean (geometric CV %), n = 6
[5] = single oral 3 mg, geometric mean (geometric CV %), n = 6
[6] = single oral 25 mg, geometric mean (geometric CV %), n = 6
[7] = single oral 40 mg, geometric mean (geometric CV %), n = 6
[8] = single oral 50 mg, geometric mean (geometric CV %), n = 11
[9] = CYP2D6 poor metabolizers, geometric mean, n = 7
[10] = CYP2D6 poor metabolizers, mean ± SD, n = 7
[11] = food-effect cohort, Fasted, n = 4
[12] = food-effect cohort, Fasted, n = 10
[13] = food-effect cohort, Fed, n = 12

Which results are given for `CCc1nc(-c2ccc3c(c2)CC[C@H]3NC(=O)c2cnn(C)c2)no1` [aficamten, (R)—N-(5-(5-ethyl-1,2,4-oxadiazol-3-yl)-2,3-dihydro-1H-inden-1-yl)-1-methyl-1H-pyrazole-4-carboxamide]?
maximum time to maximum observed concentration across all participants ([1]; SAD cohorts): 4.0 h; AUC24 [1, 4]: 50 (20) ng · h/ml; Cmax [1, 4]: 5.8 (38.4) ng/ml; AUCinf ([1]; single oral 3 mg, geometric mean (geometric CV %), n = 5): 823 (61) ng · h/ml; AUC24 [1, 5]: 174 (27) ng · h/ml; Cmax [1, 5]: 26.1 (82.4) ng/ml; CL/F ([1]; single oral 3 mg, n = 5): 4.2 ± 3.1 L/h; t1/2 ([1]; single oral 3 mg, n = 5): 75.1 ± 21.8 h; Tmax ([1]; single oral 3 mg, n = 6): 1.3 (0.5, 2.6) h; AUC24 ([1]; single oral 10 mg (extensive metabolizers), geometric mean (geometric CV %), n = 6): 679 ng·h/mL; t1/2 ([1]; single oral 10 mg (extensive metabolizers), n = 4): 84.7 ± 17.7 h; AUCinf ([1]; single oral 10 mg, geometric mean (geometric CV %), n = 4): 3,434 (24) ng · h/ml; Cmax ([1]; single oral 10 mg, geometric mean (geometric CV %), n = 6): 70.5 (69.0) ng/ml; CL/F ([1]; single oral 10 mg, n = 4): 3.0 ± 0.7 L/h; Tmax ([1]; single oral 10 mg, n = 6): 2.8 (0.5, 3.0) h; AUC24 [1, 6]: 1,493 (15) ng · h/ml; AUCinf [1, 6]: 7,113 (15) ng · h/ml; Cmax [1, 6]: 192.6 (23.3) ng/ml; CL/F ([1]; single oral 25 mg, n = 6): 3.6 ± 0.5 L/h; Tmax ([1]; single oral 25 mg, n = 6): 1.8 (0.5, 4.0) h; AUCinf ([1]; single oral 40 mg, geometric mean (geometric CV %), n = 5): 11,860 (20) ng · h/ml; AUC24 [1, 7]: 2,532 (13) ng · h/ml; Cmax [1, 7]: 383.2 (67.9) ng/ml; t1/2 ([1]; single oral 40 mg, n = 4): 79.2 ± 18.5 h; CL/F ([1]; single oral 40 mg, n = 5): 3.4 ± 0.6 L/h; AUCinf ([1]; single oral 50 mg, geometric mean (geometric CV %), n = 9): 13,740 (35) ng · h/ml; AUC24 [1, 8]: 2,833 (26) ng · h/ml; Cmax [1, 8]: 359.4 (38.9) ng/ml; CL/F ([1]; single oral 50 mg, n = 9): 3.8 ± 1.1 L/h; t1/2 ([1]; single oral 50 mg, n = 9): 80.4 ± 14.9 h; Tmax ([1]; single oral 50 mg, n = 11): 1.0 (0.5, 2.5) h; Tmax ([1]; single oral 75 mg, n = 1): 0.5 (0.5, 0.5) h; AUC24 ([1]; single oral 75 mg, n = 1): 4,556 (—) ng · h/ml; Cmax ([1]; single oral 75 mg, n = 1): 1,220 (—) ng/ml; dose proportionality of Cmax and exposure (AUC24) ([1]; single oral doses between 1 mg and 50 mg): dose-proportional; also recorded: linear kinetics; AUC24 [2, 9]: 495 ng·h/mL; AUCinf [2, 9]: 2966 ng·h/mL; Cmax [2, 9]: 57.3 ng/mL; CL/F [2, 10]: 3.6 ± 1.4 L/h; t1/2 [2, 10]: 110 h; impact of CYP2D6-PM phenotype on pharmacokinetics ([2]; versus extensive metabolizers): Neither food nor CYP2D6-PM phenotype had a clinically meaningful impact; also recorded: did not appear to have reduced clearance; effect of food on pharmacokinetics ([3]; fed (high-fat breakfast) versus fasted): Neither food nor CYP2D6-PM phenotype had a clinically meaningful impact; also recorded: little effect on AUC; also recorded: no significant effect of food; increase in Cmax when taken with food ([3]; fed versus fasted): approximately 30%; AUCinf [3, 11]: 3674 ng·h/mL; AUC24 [3, 12]: 601 (33) ng · h/ml; Cmax [3, 12]: 50.6 ng/mL; CL/F [3, 11]: 2.8 ± 0.6 L/h; t1/2 [3, 11]: 84.4 ± 16.4 h; Tmax ([3]; food-effect cohort, Fasted, median, n = 10): 2.3 h; AUCinf ([3]; food-effect cohort, Fed, n = 7): 3413 ng·h/mL; AUC24 [3, 13]: 631 (25) ng · h/ml; Cmax [3, 13]: 65.0 ng/mL; CL/F ([3]; food-effect cohort, Fed, n = 7): 3.1 ± 0.9 L/h; t1/2 ([3]; food-effect cohort, Fed, n = 7): 78.0 ± 8.1 h
